Laboratory results reported in patent publication US20100256402A1, “NOVEL SOLVATE” (Sandoz AG, priority 2007, published 2010).
Values after ≈ are worked out from the molar mass of the structure shown.

What was measured:
Format in all cases: physicochemical
[1] = Water solubility testing (saturated solution in distilled water, UV-vis 347 nm); conditions: for Concentration (water solubility): 30 min
Procedure: A UV-vis Lambda 35 spectrophotometer (Perkin-Elmer) was used (A=347 nm, 1.0 cm quartz cells). Perkin Elmer® UV WinLab-5.1 software was used.
A saturated solution of Tigecycline in distilled water was prepared and the suspension was stirred at room temperature for 30 minutes with a stirring speed of 1000 U/min. The suspension was filtrated through a 0.45 μm filter. Finally the resulting solution was diluted 10000-fold and measured against water at a wavelength of 347 nm.

[2] = Stability after storing different forms of Tigecycline at 80° C. for 7 days; conditions: for 4-Epi-Tigecycline ambient conditions / Total impurities ambient conditions: ambient conditions (before storage); for 4-Epi-Tigecycline 7 days at 80° C. / Total impurities 7 days at 80° C.: after storing 7 days at 80° C.
[3] = Water content and hygroscopicity, open storage for 24 hours at 80% relative humidity; conditions: for water uptake 1 day at 80% rH: open storage for 24 hours at 80% relative humidity; for water content 1 day at 80% rH: open storage 1 day at 80% rH
Description: Furthermore suitable crystalline forms of Tigecycline should be low hygroscopic, as water uptake may cause the formation of undesired byproducts like e.g. 4-Epi-Tigecycline. […] Therefore crystalline form X is less hygroscopic than forms I, II, Ill and V of WO 2006/128150 and also less hygroscopic than form I of WO 2007/127292.

Compound	Concentration (water solubility) [1] [mg/mL]	4-Epi-Tigecycline ambient conditions [2] [%]	Total impurities ambient conditions [2] [%]	water uptake 1 day at 80% rH [3] [%]	water content [%] ambient conditions [3] [%]	4-Epi-Tigecycline 7 days at 80° C. [2] [%]	Total impurities 7 days at 80° C. [2] [%]	water content 1 day at 80% rH [3] [%]	further results
CN(C)c1cc(NC(=O)CNC(C)(C)C)c(O)c2c1C[C@H]1C[C@H]3[C@H](N(C)C)C(O)=C(C(N)=O)C(=O)[C@@]3(O)C(O)=C1C2=O [WO 2006/128150 I, Tigecycline]	201	0.36	0.75	3.00	–	–	–	–	–
CN(C)c1cc(NC(=O)CNC(C)(C)C)c(O)c2c1C[C@H]1C[C@H]3[C@H](N(C)C)C(O)=C(C(N)=O)C(=O)[C@@]3(O)C(O)=C1C2=O [WO 2006/128150 II, Tigecycline]	170	–	1.6	–	–	–	–	–	–
CN(C)c1cc(NC(=O)CNC(C)(C)C)c(O)c2c1C[C@H]1C[C@H]3[C@H](N(C)C)C(O)=C(C(N)=O)C(=O)[C@@]3(O)C(O)=C1C2=O [WO 2006/128150 III, Tigecycline]	174	0.16	0.16	–	0.69	–	–	–	–
CN(C)c1cc(NC(=O)CNC(C)(C)C)c(O)c2c1C[C@H]1C[C@H]3[C@H](N(C)C)C(O)=C(C(N)=O)C(=O)[C@@]3(O)C(O)=C1C2=O [WO 2006/128150 IV, Tigecycline]	–	0.23	0.4	0.43	2.90	0.38	0.87	–	solubility at 30 min ([1]; distilled water, water, thermodynamic from solid, distilled water, room temperature, stirred 30 minutes, 0.45 μm filter, read-out: Concentration (water solubility)): 322 mg/mL (≈ 550 mM)
CN(C)c1cc(NC(=O)CNC(C)(C)C)c(O)c2c1C[C@H]1C[C@H]3[C@H](N(C)C)C(O)=C(C(N)=O)C(=O)[C@@]3(O)C(O)=C1C2=O [WO 2006/128150 V, Tigecycline]	–	< 0.05	0.22	–	0.19	0.18	0.37	–	–
CN(C)c1cc(NC(=O)CNC(C)(C)C)c(O)c2c1C[C@H]1C[C@H]3[C@H](N(C)C)C(O)=C(C(N)=O)C(=O)[C@@]3(O)C(O)=C1C2=O [WO 2007/127292 I, Tigecycline]	54	–	–	6.26	0.13	–	–	6.39	4-Epi-Tigecycline 7 days at 80° C. ([2]; listed as WO 2007/127792 I): 1.26%; Total impurities 7 days at 80° C. ([2]; listed as WO 2007/127792 I): 2.22%; 4-Epi-Tigecycline ambient conditions ([2]; listed as WO 2007/127792 I): 0.34%; Total impurities ambient conditions ([2]; listed as WO 2007/127792 I): 0.59%; water uptake 1 day at 80% rH ([3]; listed as form I of WO 2007/127292): 6.26%
CN(C)c1cc(NC(=O)CNC(C)(C)C)c(O)c2c1C[C@H]1C[C@H]3[C@H](N(C)C)C(O)=C(C(N)=O)C(=O)[C@@]3(O)C(O)=C1C2=O [WO 2007/127292 II, Tigecycline]	–	–	–	0.07	0.18	–	–	0.25	4-Epi-Tigecycline 7 days at 80° C. ([2]; listed as WO 2007/127792 II): 0.38%; Total impurities 7 days at 80° C. ([2]; listed as WO 2007/127792 II): 0.91%; 4-Epi-Tigecycline ambient conditions ([2]; listed as WO 2007/127792 II): 0.17%; Total impurities ambient conditions ([2]; listed as WO 2007/127792 II): 0.24%
CN(C)c1cc(NC(=O)CNC(C)(C)C)c(O)c2c1C[C@H]1C[C@H]3[C@H](N(C)C)C(O)=C(C(N)=O)C(=O)[C@@]3(O)C(O)=C1C2=O [X, Tigecycline]	162	0.2	0.58	0.57	0.29	0.79	3.48	0.86	water uptake 1 day at 80% rH ([3]; listed as form X): 0.57%
